In patent US9663530B2, “5-oxa-2-azabicyclo[2.2.2]OCTAN-4-yl and 5-oxa-2-azabicyclo[2.2.1]heptan-4-yl derivatives” (Hoffmann-La Roche Inc., priority 2014, dated 2017):

Columns and labels:
rat TAAR1 = rat TAAR1 (Rattus norvegicus (Rat), UniProt Q923Y9); assay: Radioligand binding assay on rat TAAR1; settings: rat TAAR1 (second value of the cell); membranes of HEK-293 cells stably expressing rat TAAR1; read-out: Ki (μM) mouse/rat
In short: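 Membranes from HEK293 cells stably expressing rat TAAR1 were incubated 1 h at 4 °C, in duplicate, with the tritiated oxazol-2-ylamine radioligand added at 3.3×Kd (Kd set per membrane batch by saturation). Buffer was 20 mM HEPES-NaOH pH 7.4, 10 mM MgCl2, 2 mM CaCl2; filtration and scintillation counting followed. […]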

mouse TAAR1 = mouse TAAR1 (Mus musculus (Mouse), UniProt Q923Y8); assay: Radioligand binding assay on mouse TAAR1; settings: mouse TAAR1 (first value of the cell); membranes of HEK-293 cells stably expressing mouse TAAR1; read-out: Ki (μM) mouse/rat
Sequence of mouse TAAR1 (Q923Y8 whole entry): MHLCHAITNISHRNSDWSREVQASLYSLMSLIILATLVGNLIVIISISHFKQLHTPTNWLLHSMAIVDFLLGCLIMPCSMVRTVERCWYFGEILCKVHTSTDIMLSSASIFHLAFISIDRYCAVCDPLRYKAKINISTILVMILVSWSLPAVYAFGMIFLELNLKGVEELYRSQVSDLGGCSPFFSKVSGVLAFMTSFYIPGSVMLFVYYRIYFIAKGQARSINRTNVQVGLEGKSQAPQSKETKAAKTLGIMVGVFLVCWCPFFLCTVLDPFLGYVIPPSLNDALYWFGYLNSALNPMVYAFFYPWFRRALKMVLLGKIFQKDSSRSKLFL

Sequence of rat TAAR1 (Q923Y9 whole entry): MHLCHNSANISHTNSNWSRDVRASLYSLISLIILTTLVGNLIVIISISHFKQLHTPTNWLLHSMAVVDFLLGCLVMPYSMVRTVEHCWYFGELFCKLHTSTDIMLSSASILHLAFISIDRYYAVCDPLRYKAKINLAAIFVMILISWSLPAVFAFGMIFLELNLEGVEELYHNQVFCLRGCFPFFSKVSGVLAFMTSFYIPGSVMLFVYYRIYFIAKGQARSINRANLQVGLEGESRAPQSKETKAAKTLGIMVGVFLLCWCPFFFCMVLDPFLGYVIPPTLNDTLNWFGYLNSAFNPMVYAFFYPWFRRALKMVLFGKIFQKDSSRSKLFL

Ki (rat TAAR1) [µM] | Ki (mouse TAAR1) [µM] | Structure (SMILES)
1.98 | 0.0156 | CCOc1ccc(C(=O)Nc2ccc(C34CCC(CO3)NC4)cc2)cc1 (centres unmarked) [Example 53, 4-Ethoxy-N-[4-(5-oxa-2-azabicyclo[2.2.2]octan-4-yl)phenyl]benzamide]
0.0987 | 0.0522 | O=C(Nc1ccc(C[C@@]23CN[C@@H](CO2)C3)cc1)c1ccnc(C(F)(F)F)c1 [Example 40, N-[4-[[(1R,4R)-5-Oxa-2-azabicyclo[2.2.1]heptan-4-yl]methyl]phenyl]-2-(trifluoromethyl)pyridine-4-carboxamide]
1.24 | 0.226 | CCc1ncc(C(=O)Nc2ccc(C[C@@]34CN[C@@H](CO3)C4)cc2)cn1 [Example 50, 2-Ethyl-N-[4-[[(1R,4R)-5-oxa-2-azabicyclo[2.2.1]heptan-4-yl]methyl]phenyl]pyrimidine-5-carboxamide]
3.84 | 0.122 | FC(F)(F)c1cnc(Nc2ccc(C34CCC(CO3)NC4)cc2)nc1 (racemic) [Example 65, (RS)—N-[4-(5-Oxa-2-azabicyclo[2.2.2]octan-4-yl)phenyl]-5-(trifluoromethyl)pyrimidin-2-amine]
0.328 | 0.0111 | FC(F)(F)c1ccc(Nc2ccc(C34CCC(CO3)NC4)cc2)nc1 (racemic) [Example 4, (RS)—N-[4-(5-Oxa-2-azabicyclo[2.2.2]octan-4-yl)phenyl]-5-(trifluoromethyl)pyridin-2-amine]
7.68 | 0.03 | FC(F)(F)c1cnc(Nc2ccc(C34CCC(CO3)NC4)cc2)cn1 (racemic) [Example 64, (RS)—N-[4-(5-Oxa-2-azabicyclo[2.2.2]octan-4-yl)phenyl]-5-(trifluoromethyl)pyrazin-2-amine]
1.22 | 0.019 | O=C(Nc1ccc(C23CCC(CO2)NC3)cc1)c1ccc(OCC2CC2)cc1 (racemic) [Example 11, (RS)-4-(Cyclopropylmethoxy)-N-[4-(5-oxa-2-azabicyclo[2.2.2]octan-4-yl)phenyl]benzamide]

Further lines, the molecule ahead of its results:

Structure (SMILES) | Ki (rat TAAR1) [µM] | Ki (mouse TAAR1) [µM]
O=C(Nc1ccc(C[C@]23CN[C@H](CO2)C3)cc1)c1cccc(Cl)c1 [Example 17, 3-Chloro-N-[4-[[(1S,4S)-5-oxa-2-azabicyclo[2.2.1]heptan-4-yl]methyl]phenyl]benzamide] | 0.229 | 0.112
Clc1ccc(Nc2ccc([C@]34CN[C@H](CO3)C4)cc2)nc1 [Example 7, 5-Chloro-N-[4-[(1S,4R)-5-oxa-2-azabicyclo[2.2.1]heptan-4-yl]phenyl]pyridin-2-amine] | 0.309 | 0.0414
O=C(Nc1ccc(C[C@@]23CN[C@@H](CO2)C3)cc1)c1ccc(OCC2CC2)cc1 [Example 45, 4-(Cyclopropylmethoxy)-N-[4-[[(1R,4R)-5-oxa-2-azabicyclo[2.2.1]heptan-4-yl]methyl]phenyl]benzamide] | 0.0212 | 0.0061
O=C(Nc1ccc(C[C@@]23CN[C@@H](CO2)C3)cc1)c1[nH]nc(C2CC2)c1Cl [Example 48, 4-Chloro-3-cyclopropyl-N-[4-[[(1R,4R)-5-oxa-2-azabicyclo[2.2.1]heptan-4-yl]methyl]phenyl]-1H-pyrazole-5-carboxamide] | 0.112 | 0.0147
CCOc1ccc(C(=O)Nc2ccc(C[C@@]34CN[C@@H](CO3)C4)cc2)cc1 [Example 49, 4-Ethoxy-N-[4-[[(1R,4R)-5-oxa-2-azabicyclo[2.2.1]heptan-4-yl]methyl]phenyl]benzamide] | 0.142 | 0.0067
O=C(Nc1ccc(Cl)cc1)Nc1ccc(C[C@]23CN[C@H](CO2)C3)cc1 [Example 1, 1-(4-Chlorophenyl)-3-[4-[[(1S,4S)-5-oxa-2-azabicyclo[2.2.1]heptan-4-yl]methyl]phenyl]urea] | 1150 | 1.82
